Assay results from US20110034427A1, “Anti-aging properties of quercetin, 18alpha-glycyrrhetinic acid and hederagenin and their derivatives” (priority 2009, published 2011).
“Also recorded” adds a separate entry of the source.

Experiments:
tyrosinase = test: Tyrosinase expression (immunoblot); type: cell-based, mouse; conditions: for protein expression levels of tyrosinase (conclusion): concentration not given; for protein levels of tyrosinase (FIG. 11): mouse melanocytes, 72 h
Procedure: B.1. Mouse melanocytes were cultured as described in A.1.-A.3. After 72 h of treatment, the cells were collected, lysed and proteins were extracted and subjected to SDS-PAGE followed by immunoblot analysis against tyrosinase. Protein concentrations were determined using the Bradford method with BSA as a standard.

[1] = test system: middle aged and terminally senescent HFL-1 HDFs; test: Reversal of senescent phenotype in middle aged and terminally senescent cells; type: cell-based, human; conditions: for proliferation of middle aged cells (FIG. 3A): middle aged HFL-1 (cpd 59), QUER, 18α GA 2 μg/ml, QU-CAP 0.5, 2 and 5 μg/ml; for proliferation of middle aged cells (FIG. 3A) / proliferation of terminally senescent cells (FIG. 3B): 1 week; for morphology of middle aged cells (FIG. 4A) / β-galactosidase activity staining of middle aged cells (FIG. 4A): middle aged HFL-1, 1 week; for β-galactosidase activity staining of middle aged cells (FIG. 4A): QU-CAP all three concentrations; for reversal of the senescent phenotype / rejuvenation effect (conclusion): middle aged cells or terminally senescent cells; for proliferation of terminally senescent cells (FIG. 3B): terminally senescent HFL-1 (cpd 65), QUER 2 μg/ml, QU-CAP 2 and 5 μg/ml; for morphology of terminally senescent cells (FIG. 4B) / β-galactosidase activity of terminally senescent cells (FIG. 4B): terminally senescent HFL-1, 1 week, QU-CAP higher concentrations
Procedure: 3.1. HFL-1 HDFs that have senesced in vitro were used (growth at 37° C., 5% CO2 and 95% humidity). More specifically, middle aged HFL-1 HDFs (cpd 59) and terminally senescent HFL-1 HDFs (cpd 65) that had senesced in the absence of any substance were used.
3.2. The cells were seeded and maintained in complete medium (see 1.2). Culture medium supplemented with the substances [final concentration for quercetin (QUER), 18α-glycyrrhetinic acid (18α GA), and hederagenin (HED): 2 μg/ml and for quercetin caprylate (QU-CAP) three concentrations were applied: 0.5, 2 and 5 μg/ml] or the diluents (0.1% DMSO or 0.1% CAP) were added 24 h later. The cells were replenished with fresh media supplemented with the substances or the diluents every 24 h for 1 week and their numbers were then examined using a Coulter Z2® counter (Coulter Corporation).
3.3. Detection of β-galactosidase activity was performed in these cells as described above and photographs of the cells following β-galactosidase activity assay were taken.

[2] = test system: proteasome subunits (β5, α7); test: Levels of proteasome subunits (immunoblot); type: cell-based, human; conditions: HFL-1, 24 h treatment
Procedure: 8.1. HFL-1 HDFs were cultured as described in 5.1. Following the incubation with the various substances for 24 h, cells were collected, lysed and proteins were extracted and subjected to SDS-PAGE followed by immunoblot analysis against different proteasome subunits. Protein concentrations were determined using the Bradford method with BSA as a standard.
8.2. […] In total, the increased amount of proteasome subunits expression levels provide an explanation regarding the increased proteasome activities recorded in these cells.

HFL-1 HDFs [3] = test: Cellular survival with or without oxidative stress; type: cell-based, human; conditions: for survival to an oxidative stress challenge (conclusion): vs control cells
Procedure: 6.1. HFL-1 HDFs were cultured as described in 5.1. Following the incubation with the various substances cells were collected and counted using a Coulter Z2® counter (Coulter Corporation). In replica cultures, culture medium supplemented with the substances as described above were also supplemented with 300 μM H2O2 for 2.5 h. The cells were then thoroughly washed with PBS, supplemented with complete medium containing the examined substances and maintained in culture for additional 24 h. They were then collected and counted using a Coulter Z2® counter (Coulter Corporation).

HFL-1 HDFs [4] = test: Levels of oxidized proteins (OxyBlot analysis); type: cell-based, human; conditions: HFL-1, 24 h treatment; vs control
Procedure: 4.1. HFL-1 HDFs were cultured as described in 1.1-1.4. Cells treated with the substances for 24 h and were then lysed and proteins were extracted and subjected to SDS-PAGE (sodium dodecylsulfate polyacrylamide gel electrophorese) followed by OxyBlot analysis that detects the carbonylated groups on proteins. OxyBlot™ is a protein oxidation detection kit.
4.2. […] However it is worth mentioning that OxyBlot analysis detects only carbonylated groups on proteins which is just one oxidative stress-mediated post-translational protein modification.

[5] = test system: HFL-1 human diploid fibroblasts; test: Lifespan (cumulative population doublings) and morphology of human diploid fibroblasts under continuous treatment; type: cell-based; conditions: for appearance of the senescent phenotype (conclusion): continuous treatment, morphology, shape, β-galactosidase positive cells
Procedure: 1.1. HFL-1 human diploid fibroblasts (HDFs) were used in in vitro conditions (growth at 37° C., 5% CO2 and 95% humidity).
1.2. The cells were maintained in Dulbecco's modified Eagle's medium (DMEM®; Invitrogen Life Technologies Inc.) supplemented with 10% (v/v) fetal calf serum, 100 Units/ma penicillin, 100 μg/ml strepromycin, 2 mM glutamine and 1% (v/v) non-essential amino acids (complete medium).
1.3. The cells were constantly cultured in culture medium supplemented with the substances [final concentration for quercetin (QUER), 18α-glycyrrhetinic acid (18α GA), and hederagenin (HED): 2 μg/ml and for quercetin caprylate (QU-CAP) three concentrations were applied: 0.5, 2 and 5 μg/ml]. Quercetin, 18α-glycyrrhetinic acid and hederagenin were diluted in DMSO (dimethyl sulfoxide) whereas quercetin caprylate was diluted in caprilic/capric triglycerides (CAP). Therefore, the control cultures were incubated in medium supplemented with 0.1% DMSO or 0.1% CAP.
1.4. The cells were replenished with fresh media supplemented with the substances or the diluents every 24 h and their numbers were examined using a Coulter Z2® counter (Coulter Corporation) until they reached senescence (approximately after 13 weeks). The cumulative population doublings performed by each culture were calculated using the following formula: CPD=Σ[PD] where PD=LOG [Nfinal/Ninitial]/LOG [2], where N final represents the number of cells that were measured when each culture reached confluence and N initial represents the number of cells that was initially seeded.
1.5. Photographs of the cells maintained in cell culture and treated with the various substances for the same time period were taken.
1.6. […] More specifically, cells that were incubated with quercetin caprylate gave up to 2.8% more population doublings as compared to the population doublings performed by the relative control cultures. Cells that were incubated with the other substances gave up to 2.9% more population doublings as compared to their relative control cultures.
1.7. […] Cells that were treated with either of the tested substances maintained the young morphology for longer as compared to the control cultures (DMSO-treated and CAP-treated).

[6] = test system: Mouse melanocytes (B10F16 cell line); test: Cellular whitening of melanocytes (cell pellet); type: cell-based; conditions: for whitening of melanocytes (conclusion): concentration not given; for whitening of melanocyte pellet (FIG. 10): 72 h
Procedure: A.1. Mouse melanocytes (B10F16 cell line) were used in in vitro conditions (growth at 37° C., 5% CO2 and 95% humidity).
A.2. The cells were maintained in Dulbecco's modified Eagle's medium (DMEM®; Invitrogen Life Technologies Inc.) supplemented with 10% (v/v) fetal calf serum, 100 Units/ma penicillin, 100 μg/ml strepromycin, 2 mM glutamine and 1% (v/v) non-essential amino acids (complete medium).
A.3. 10^5 cells were seeded in petri dishes and the following day they were fed with medium supplemented with the substances [final concentration for all substances: 5 μg/ml and 10 μg/ml]. Quercetin (QUER), 18α-glycyrrhetinic acid (18α GA) and hederagenin (HED) were diluted in DMSO whereas quercetin caprylate was diluted in caprilic/capric triglycerides (CAP). Therefore, the control cultures were incubated in medium supplemented with 0.1% DMSO or 0.1% CAP. The media were replenished every 24 h and the cells were kept under these conditions constantly for 72 h. Cells were then collected and pelleted and the cell pellet was photographed.
A.4. […] The result was positively correlated to the concentration of quercetin used.

Compound	protein expression levels of tyrosinase (conclusion) (tyrosinase)	proliferation of middle aged cells (FIG. 3A) [1]	morphology of middle aged cells (FIG. 4A) [1]	β-galactosidase activity staining of middle aged cells (FIG. 4A) [1]	reversal of the senescent phenotype / rejuvenation effect (conclusion) [1]	protein levels of proteasome subunits β5 and α7 (FIG. 9) [2]	higher survival rate after oxidative stress as compared to control cultures (HFL-1 HDFs [3]; 300 μM H2O2 for 2.5 h, then additional 24 h in culture) [%]	higher survival rate as compared to diluent-treated cells (HFL-1 HDFs [3]; 24 h treatment, without oxidative stress) [%]	survival to an oxidative stress challenge (conclusion) (HFL-1 HDFs [3])	levels of oxidized (carbonylated) proteins (FIG. 5) (HFL-1 HDFs [4])	appearance of the senescent phenotype (conclusion) [5]	whitening of melanocytes (conclusion) [6]	whitening of melanocyte pellet (FIG. 10) ([6]; lower concentration (5 μg/ml))	protein levels of tyrosinase (FIG. 11) (tyrosinase; high concentration)	protein levels of tyrosinase (FIG. 11) (tyrosinase; 5 and 10 μg/ml)	proliferation of terminally senescent cells (FIG. 3B) [1]	morphology of terminally senescent cells (FIG. 4B) [1]	β-galactosidase activity of terminally senescent cells (FIG. 4B) [1]	whitening of melanocyte pellet (FIG. 10) ([6]; both concentrations (5 and 10 μg/ml))	more population doublings as compared to the relative control cultures ([5]; HFL-1, continuous treatment about 13 weeks, QU-CAP 0.5, 2 and 5 μg/ml, others 2 μg/ml, vs 0.1% DMSO or 0.1% CAP)
CC1(C)[C@@H](O)CC[C@]2(C)[C@H]3C(=O)C=C4[C@H]5C[C@@](C)(C(=O)O)CC[C@]5(C)CC[C@@]4(C)[C@]3(C)CC[C@@H]12 [18α-glycyrrhetinic acid]	decrease of the protein expression levels of tyrosinase	higher proliferation rates	acquired a morphology more similar to the one exhibited by young cells	less positive to β-galactosidase activity staining	regained a younger morphology and were induced to limited but significant proliferation	similar	2	3.5	survived better	lower amounts of oxidized proteins; also recorded: slightly lower levels	delay in the appearance of the senescent phenotype	revealed whitening potential	revealed whitening potential							
CC1(C)CC[C@]2(C(=O)O)CC[C@]3(C)C(=CC[C@@H]4[C@@]5(C)CC[C@H](O)[C@@](C)(CO)[C@@H]5CC[C@]43C)[C@@H]2C1 [hederagenin, Hederagenin]	decrease of the protein expression levels of tyrosinase					did not detect any up-regulation						revealed whitening potential	revealed whitening potential	reduced protein levels of tyrosinase						
O=c1c(O)c(-c2ccc(O)c(O)c2)oc2cc(O)cc(O)c12 [quercetin, Quercetin]	decrease of the protein expression levels of tyrosinase	higher proliferation rates	acquired a morphology more similar to the one exhibited by young cells	less positive to β-galactosidase activity staining	regained a younger morphology and were induced to limited but significant proliferation	elevated protein levels			survived better		delay in the appearance of the senescent phenotype	revealed whitening potential			reduced protein levels of tyrosinase	limited but significant cell proliferation	acquired a morphology that exhibits more similarities with the morphology of young fibroblasts	many of those cells were negative for β-galactosidase activity	revealed whitening potential	
Quercetin caprylate		higher proliferation rates	acquired a morphology more similar to the one exhibited by young cells	less positive to β-galactosidase activity staining	regained a younger morphology and were induced to limited but significant proliferation	elevated protein levels			survived better	lower amounts of oxidized proteins; also recorded: less oxidized proteins	delay in the appearance of the senescent phenotype				reduced protein levels of tyrosinase	limited but significant cell proliferation	acquired a morphology that exhibits more similarities with the morphology of young fibroblasts	many of those cells were negative for β-galactosidase activity		up to 2.8%
